Consider one molecule from patent publication US20120196899A1, “METHODS AND PRODUCTS FOR TREATING INFLAMMATION” (Rock Creek Pharmaceuticals, Inc., priority 2010, published 2012).

The target of one assay is T1, nAChR α4/β2 (Homo sapiens, UniProt P17787+P43681).
T1 construct: host or cells: HEK293 cells, transient transfection
Briefly: nAChR α4/β2 channel agonist assay (FLIPR membrane potential). The assay is classed as cell-based. As to conditions: 30 μM Ach = 100%, HBPS = 0%.

The target in the next assay is nAChR α3/β4 (Homo sapiens, UniProt P30926+P32297). Briefly: nAChR α3/β4 channel agonist assay (FLIPR, Fluo-8 calcium). As to conditions: 30 μM Ach = 100%, HBPS = 0%.
nAChR α3/β4, sequence (P32297 32-505): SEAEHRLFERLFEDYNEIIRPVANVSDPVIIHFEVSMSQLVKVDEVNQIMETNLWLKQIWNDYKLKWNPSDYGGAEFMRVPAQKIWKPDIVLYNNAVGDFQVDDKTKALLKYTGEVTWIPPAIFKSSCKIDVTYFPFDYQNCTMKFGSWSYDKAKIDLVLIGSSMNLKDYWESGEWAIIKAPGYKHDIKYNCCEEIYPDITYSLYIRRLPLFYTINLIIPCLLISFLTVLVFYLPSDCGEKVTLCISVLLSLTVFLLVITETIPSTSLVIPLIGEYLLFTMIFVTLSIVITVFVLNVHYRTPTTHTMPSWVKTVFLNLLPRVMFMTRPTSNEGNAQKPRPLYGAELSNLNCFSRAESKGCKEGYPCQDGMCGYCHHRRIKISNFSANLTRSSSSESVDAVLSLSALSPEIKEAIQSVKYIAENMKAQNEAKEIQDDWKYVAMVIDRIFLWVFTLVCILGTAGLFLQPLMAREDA
nAChR α3/β4, sequence (P30926 22-498): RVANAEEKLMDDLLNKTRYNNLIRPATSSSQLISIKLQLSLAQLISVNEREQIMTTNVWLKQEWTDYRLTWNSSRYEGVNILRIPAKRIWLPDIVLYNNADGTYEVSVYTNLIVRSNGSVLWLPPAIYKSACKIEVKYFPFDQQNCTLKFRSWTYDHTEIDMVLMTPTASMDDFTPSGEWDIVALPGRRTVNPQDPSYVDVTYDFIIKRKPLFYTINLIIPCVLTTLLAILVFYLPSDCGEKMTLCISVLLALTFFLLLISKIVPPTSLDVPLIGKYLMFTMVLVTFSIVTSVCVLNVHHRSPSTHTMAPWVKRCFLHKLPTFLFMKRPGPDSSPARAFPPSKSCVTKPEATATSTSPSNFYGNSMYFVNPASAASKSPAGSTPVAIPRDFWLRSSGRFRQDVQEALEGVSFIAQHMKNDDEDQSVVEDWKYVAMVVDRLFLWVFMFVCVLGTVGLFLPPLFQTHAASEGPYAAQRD

T1 sequence (P17787 26-502): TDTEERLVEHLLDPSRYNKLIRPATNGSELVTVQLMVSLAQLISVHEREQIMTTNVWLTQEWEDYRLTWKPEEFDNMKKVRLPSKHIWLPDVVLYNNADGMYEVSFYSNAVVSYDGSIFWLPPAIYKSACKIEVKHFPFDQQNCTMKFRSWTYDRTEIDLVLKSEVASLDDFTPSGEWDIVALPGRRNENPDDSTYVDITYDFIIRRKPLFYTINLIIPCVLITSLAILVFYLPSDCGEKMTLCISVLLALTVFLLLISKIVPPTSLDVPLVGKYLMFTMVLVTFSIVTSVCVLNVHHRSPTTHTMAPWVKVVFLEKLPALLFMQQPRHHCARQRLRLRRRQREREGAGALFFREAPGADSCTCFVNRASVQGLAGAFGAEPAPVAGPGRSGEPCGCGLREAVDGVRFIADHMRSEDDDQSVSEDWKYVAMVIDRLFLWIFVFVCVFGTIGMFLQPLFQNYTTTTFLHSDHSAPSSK
T1 sequence (P43681 29-627): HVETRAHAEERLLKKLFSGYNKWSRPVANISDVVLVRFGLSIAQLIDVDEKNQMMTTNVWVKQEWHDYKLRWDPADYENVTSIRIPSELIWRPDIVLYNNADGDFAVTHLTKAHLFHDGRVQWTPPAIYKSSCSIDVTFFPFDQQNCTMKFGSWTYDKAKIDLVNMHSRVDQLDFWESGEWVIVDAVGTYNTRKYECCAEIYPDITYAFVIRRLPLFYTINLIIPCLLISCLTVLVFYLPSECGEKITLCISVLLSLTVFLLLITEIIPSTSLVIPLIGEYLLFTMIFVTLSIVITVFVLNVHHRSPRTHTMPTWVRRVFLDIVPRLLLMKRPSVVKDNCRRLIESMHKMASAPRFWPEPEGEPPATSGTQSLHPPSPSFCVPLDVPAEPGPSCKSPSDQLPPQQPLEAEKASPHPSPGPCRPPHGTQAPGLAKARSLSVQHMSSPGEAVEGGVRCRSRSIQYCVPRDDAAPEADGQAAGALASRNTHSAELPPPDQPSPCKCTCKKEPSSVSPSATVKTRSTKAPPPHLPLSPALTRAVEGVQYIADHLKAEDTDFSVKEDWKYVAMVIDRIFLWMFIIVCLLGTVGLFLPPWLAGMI
Description for nAChR α3/β4: (§1) The following three (3) channels were evaluated: • 1. nAChR α3/β4 (encoded by the human CHRNA3 and CHRNB4 gene and stably expressed in CHO cells); • 2. nAChR α4/β2 (CHRNA4 and CHRNB2 gene and transiently expressed in HEK293 cells); and • 3. nAChR α7 (encoded by the human nicotinic α7 gene coexpressed in CHO cells with the chaperone RIC-3 encoded by the human RIC3 gene).
(§2) The ability of each test article to act as an agonist, a positive allosteric modulator or antagonist of three nAChR receptor channels was evaluated in the presence of 0.1 atropine. Both test articles were evaluated for responses on each nAChR channel at eight (8) concentrations: 0.3, 1, 3, 10, 30, 100, 300, and 1000 μM (n=4 for each concentration).
(§3) HEK293 or CHO cells were transiently or stably transfected with the appropriate human ion channel cDNAs. Stable transfectants were selected by coexpression with the antibiotic-resistance gene(s) incorporated into the expression plasmid(s). Selection pressure was maintained by including selection antibiotics in the culture medium. HEK293 cells were cultured in Dulbecco's Modified Eagle Medium/Nutrient Mixture F-12 (D-MEM/F-12) supplemented with 10% fetal bovine serum, 100 U/mL penicillin G sodium, 100 g/mL streptomycin sulfate and appropriate selection antibiotics. CHO cells were cultured in Ham's F-12 supplemented with 10% fetal bovine serum, 100 U/mL penicillin G sodium, 100 g/mL streptomycin sulfate and appropriate selection antibiotics.
(§4) For FLIPR TETRA™ assay, cells were plated in 384-well black wall, flat clear bottom microtiter plates (Type: BD Biocoat Poly-D-Lysine Multiwell Cell Culture Plate) at 20,000 to 30,000 cells per well (384-well plate). Cells were incubated at 37° C. overnight or until the cells reached a sufficient density in the wells (near confluent monolayer) to use in fluorescence assays. For α4β2 assay, cells were incubated at 27° C. for at least 7 hours before use.
(§5) Experiments were performed with either the FLIPR calcium sensitive dye kit (Fluo-8, ABDbioquest, for nAChR α3/β4 and nAChR α7) or FLIPR membrane potential kit (Molecular Devices, for nAChR α4/β2) according to the manufacturer's instructions. Briefly, cells were incubated with 201 dye for 30 min at 37° C. After dye loading period, for the agonist assay, 5 μl of the test, vehicle, or control articles at concentration of 5 times of final concentration were applied to the cells without stimulation. For the positive allosteric modulation (PAM) and antagonist assay, after test article application, the cells were stimulated with either low dose (for PAM) or high dose (for antagonist) of Ach.
(§6) Concentration-response data was fitted to a Hill equation of the following form:
(§7) where Base is the response at low concentrations of test article, Max is the maximum response at high concentrations, xhalf is the EC50 or IC50, the concentration of test article producing either half-maximal activation or inhibition, and rate is the Hill coefficient. Nonlinear least squares fits were made assuming a simple one-to-one binding model.
The ability of both test articles to act as an agonist of nAChR carried out in the absence of the positive control agonist. The signal elicited in the presence of the positive control agonist, 30 μM acetylcholine (Ach) was set to 100% and the signal from the vehicle control, HEPES-buffered physiological saline (HBPS) solution was set to 0%.
Description for nAChR α4/β2: as §1, §2, §3, §4, §5, §6, §7
The ability of each test article to act as an agonist of the nAChR carried out in the absence of the positive control agonist. The signal elicited in the presence of the positive control agonist (30 μM Ach) was set to 100% and the signal from the vehicle control (HBPS) was set to 0%. Values were considered significant (bold font) if the test article mean was three or more standard deviations above from the vehicle control mean.

On to `C1=CCC(c2cccnc2)NC1` (racemic) [Anatabine (racemate)], for which the “Normalized % Activation” value was 0.28% at nAChR α4/β2 (test conc 0.3 μM); 5.36% at nAChR α4/β2 (test conc 1 μM); 10.41% at nAChR α4/β2 (test conc 3 μM); 12.65% on nAChR α4/β2 (test conc 10 μM); 9.07% on nAChR α4/β2 (test conc 30 μM); 16.96% on nAChR α4/β2 (test conc 100 μM). Further, the “Normalized % Activation” value on nAChR α4/β2 (test conc 300 μM) was 50.60%; on nAChR α4/β2 (test conc 1000 μM), 85.29%; on nAChR α3/β4 (test conc 0.3 μM), 1.32%; on nAChR α3/β4 (test conc 1 μM), −0.01%; at nAChR α3/β4 (test conc 3 μM), −1.53%; at nAChR α3/β4 (test conc 10 μM) it was −2.73%. Also, the “Normalized % Activation” value at nAChR α3/β4 (test conc 30 μM) stood at 4.93%; on nAChR α3/β4 (test conc 100 μM), 10.44%; on nAChR α3/β4 (test conc 300 μM) it was 16.97%.
